# Results published in BindingDB's records for doi:10.1021/acs.jmedchem.8b00082 (Abbvie, 2018).
# Legend:
# [1] = Inhibition of NS5A in HuH7 cell infected HCV genotype 1a H77 assessed as decrease in viral replication after 3 days by luciferase reporter gene assay
# [2] = Inhibition of NS5A in HuH7 cell infected HCV genotype 1b Con1 assessed as decrease in viral replication after 3 days by luciferase reporter gene assay
# [3] = Inhibition of HCV genotype 1b Con1 NS5A expressed in HuH7 cell infected HCV genotype 2b assessed as decrease in viral replication after 3 days by luciferase reporter gene assay
# [4] = Inhibition of HCV genotype 1b Con1 NS5A expressed in HuH7 cell infected HCV genotype 3a assessed as decrease in viral replication after 3 days by luciferase reporter gene assay
# [5] = Inhibition of HCV genotype 1b Con1 NS5A expressed in HuH7 cell infected HCV genotype 4a assessed as decrease in viral replication after 3 days by luciferase reporter gene assay
# [6] = Inhibition of HCV genotype 1b Con1 NS5A expressed in HuH7 cell infected HCV genotype 5a assessed as decrease in viral replication after 3 days by luciferase reporter gene assay
# [7] = Inhibition of HCV genotype 1b Con1 NS5A expressed in HuH7 cell infected HCV genotype 2a assessed as decrease in viral replication after 3 days by luciferase reporter gene assay
# [8] = Inhibition of HCV genotype 1b Con1 NS5A expressed in HuH7 cell infected HCV genotype 6a assessed as decrease in viral replication after 3 days by luciferase reporter gene assay
# [9] = Inhibition of NS5A in HuH7 cell infected HCV genotype 1a H77 assessed as decrease in viral replication after 3 days in presence of 40% human plasma by luciferase reporter gene assay
# [10] = Inhibition of NS5A in HuH7 cell infected HCV genotype 1b Con1 assessed as decrease in viral replication after 3 days in presence of 40% human plasma by luciferase reporter gene assay
SMILES,EC50 [1] [pM],EC50 [2] [pM],EC50 [3] [pM],EC50 [4] [pM],EC50 [5] [pM],EC50 [6] [pM],EC50 [7] [pM],EC50 [8] [pM],EC50 [9] [pM],EC50 [10] [pM]
COC(=O)N[C@H](C(=O)N1CCC[C@H]1c1nc2ccc([C@H]3CC[C@H](c4ccc5nc([C@@H]6CCCN6C(=O)[C@@H](NC(=O)OC)C(C)C)[nH]c5c4)N3c3cc(F)c(N4CCC(c5ccccc5)CC4)c(F)c3)cc2[nH]1)C(C)C,2,6,6,6,4,3,8,8,76,183
COC(=O)N[C@H](C(=O)N1CCC[C@H]1c1nc2cc(F)c([C@H]3CC[C@H](c4cc5[nH]c([C@@H]6CCCN6C(=O)[C@@H](NC(=O)OC)C6CCOCC6)nc5cc4F)N3c3cc(F)c(N4CCC(c5ccccc5)CC4)c(F)c3)cc2[nH]1)C1CCOCC1,4,8,8,11,6,6,9,12,136,337
COC(=O)N[C@H](C(=O)N1CCC[C@H]1c1nc2cc(F)c([C@H]3CC[C@H](c4cc5[nH]c([C@@H]6CCCN6C(=O)[C@@H](NC(=O)OC)C6CCOCC6)nc5cc4F)N3c3cc(F)c(N4CCC(c5ccc(F)cc5)CC4)c(F)c3)cc2[nH]1)C1CCOCC1,3,7,8,7,6,5,8,8,220,522
COC(=O)N[C@H](C(=O)N1CCC[C@H]1c1nc2cc([C@H]3CC[C@H](c4cc5nc([C@@H]6CCCN6C(=O)[C@@H](NC(=O)OC)[C@@H](C)OC)[nH]c5cc4F)N3c3cc(F)c(N4CCC(c5ccc(F)cc5)CC4)c(F)c3)c(F)cc2[nH]1)[C@@H](C)OC [A-1325912.0],1.8,4.3,1.9,2.1,1.9,1.4,2.3,2.8,64,200
COC(=O)N[C@H](C(=O)N1CCC[C@H]1C(=O)Nc1ccc([C@@H]2CC[C@@H](c3ccc(NC(=O)[C@@H]4CCCN4C(=O)[C@@H](NC(=O)OC)C(C)C)cc3)N2c2ccc(C(C)(C)C)cc2)cc1)C(C)C [CHEBI:85183],14,5,4.3,19,1.7,3.2,12,366,186,56
